PubChem BioAssay (NCI)
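Five compound concentrations were applied to cells in 96-well plates for 48 hours; endpoints were derived by simple linear interpolation of the resulting dose-response curve. GI50 marks 50% less growth. TGI is the concentration that stops growth completely.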

What was measured:
Test in all cases: NCI tumour cell line growth inhibition, 48 h
SN12C renal = system: SN12C renal
K-562 leukemia = system: K-562 leukemia
MDA-MB-435 = system: MDA-MB-435
SNB-19 CNS = system: SNB-19 CNS
RPMI-8226 leukemia = system: RPMI-8226 leukemia
HOP-62 NSCLC = system: HOP-62 NSCLC
T-47D breast = system: T-47D breast
EKVX NSCLC = system: EKVX NSCLC
MOLT-4 leukemia = system: MOLT-4 leukemia
NCI/ADR-RES ovarian = system: NCI/ADR-RES ovarian
HCC-2998 colon = system: HCC-2998 colon
NCI-H23 lung = system: NCI-H23 lung
A549 NSCLC = system: A549 NSCLC
COLO 205 colon = system: COLO 205 colon
NCI-H460 lung = system: NCI-H460 lung
UO-31 renal = system: UO-31 renal
M14 melanoma = system: M14 melanoma
SW-620 colon = system: SW-620 colon
IGROV1 ovarian = system: IGROV1 ovarian
HT29 colon = system: HT29 colon
786-0 renal = system: 786-0 renal
A498 renal = system: A498 renal
OVCAR-5 ovarian = system: OVCAR-5 ovarian
PC-3 prostate = system: PC-3 prostate
DU-145 prostate = system: DU-145 prostate
ACHN renal = system: ACHN renal
MCF7 breast = system: MCF7 breast
SNB-75 CNS = system: SNB-75 CNS
NCI-H226 lung = system: NCI-H226 lung
LOX IMVI melanoma = system: LOX IMVI melanoma
HL-60(TB) leukemia = system: HL-60(TB) leukemia
CCRF-CEM leukemia = system: CCRF-CEM leukemia
KM12 colon = system: KM12 colon
HCT-116 colon = system: HCT-116 colon
SK-MEL-5 melanoma = system: SK-MEL-5 melanoma
BT-549 breast = system: BT-549 breast
SR leukemia = system: SR leukemia
UACC-257 melanoma = system: UACC-257 melanoma
TK-10 renal = system: TK-10 renal
MDA-MB-231 breast = system: MDA-MB-231 breast
OVCAR-3 ovarian = system: OVCAR-3 ovarian
OVCAR-8 ovarian = system: OVCAR-8 ovarian
SF-539 CNS = system: SF-539 CNS
SF-268 CNS = system: SF-268 CNS
SF-295 CNS = system: SF-295 CNS
OVCAR-4 ovarian = system: OVCAR-4 ovarian
SK-OV-3 ovarian = system: SK-OV-3 ovarian
HS 578T breast = system: HS 578T breast
MALME-3M melanoma = system: MALME-3M melanoma
RXF 393 renal = system: RXF 393 renal
SK-MEL-2 melanoma = system: SK-MEL-2 melanoma
HOP-92 NSCLC = system: HOP-92 NSCLC
NCI-H522 lung = system: NCI-H522 lung
HCT-15 colon = system: HCT-15 colon
U251 CNS = system: U251 CNS
SK-MEL-28 melanoma = system: SK-MEL-28 melanoma
UACC-62 melanoma = system: UACC-62 melanoma
CAKI-1 renal = system: CAKI-1 renal

**Q.** What does the source list for CN(C)c1cc2c(Nc3ccc4c(cnn4Cc4ccccc4)c3)ncnc2cn1?
**A.** GI50 (SN12C renal): 12.1 µM; TGI (SN12C renal): > 25 µM; GI50 (K-562 leukemia): 9.66 µM; TGI (K-562 leukemia): > 25 µM; GI50 (MDA-MB-435): 10.5 µM; TGI (MDA-MB-435): > 25 µM; GI50 (SNB-19 CNS): 12.7 µM; TGI (SNB-19 CNS): > 25 µM; GI50 (RPMI-8226 leukemia): 10.9 µM; TGI (RPMI-8226 leukemia): > 25 µM; GI50 (HOP-62 NSCLC): 8.35 µM; TGI (HOP-62 NSCLC): > 23.9 µM; GI50 (T-47D breast): 3.38 µM; TGI (T-47D breast): > 20.5 µM; GI50 (EKVX NSCLC): 0.108 µM; TGI (EKVX NSCLC): > 8.76 µM; GI50 (MOLT-4 leukemia): 9.47 µM; TGI (MOLT-4 leukemia): > 25 µM; GI50 (NCI/ADR-RES ovarian): 5.85 µM; TGI (NCI/ADR-RES ovarian): > 25 µM; GI50 (HCC-2998 colon): 10.8 µM; TGI (HCC-2998 colon): > 25 µM; GI50 (NCI-H23 lung): 9.52 µM; TGI (NCI-H23 lung): > 25 µM; GI50 (A549 NSCLC): 7.49 µM; TGI (A549 NSCLC): > 25 µM; GI50 (COLO 205 colon): 10.1 µM; TGI (COLO 205 colon): > 25 µM; GI50 (NCI-H460 lung): 10.3 µM; TGI (NCI-H460 lung): > 25 µM; GI50 (UO-31 renal): 4.06 µM; TGI (UO-31 renal): > 18.4 µM; GI50 (M14 melanoma): 14.8 µM; TGI (M14 melanoma): > 25 µM; GI50 (SW-620 colon): 15.3 µM; TGI (SW-620 colon): > 25 µM; GI50 (IGROV1 ovarian): 5.38 µM; TGI (IGROV1 ovarian): > 23.3 µM; GI50 (HT29 colon): 8.98 µM; TGI (HT29 colon): > 25 µM; GI50 (786-0 renal): 8.76 µM; TGI (786-0 renal): > 25 µM; GI50 (A498 renal): 16.7 µM; TGI (A498 renal): > 25 µM; GI50 (OVCAR-5 ovarian): 9.2 µM; TGI (OVCAR-5 ovarian): > 25 µM; GI50 (PC-3 prostate): 10 µM; TGI (PC-3 prostate): > 25 µM; GI50 (DU-145 prostate): 5.54 µM; TGI (DU-145 prostate): > 25 µM; GI50 (ACHN renal): 2.1 µM; TGI (ACHN renal): > 25 µM; GI50 (MCF7 breast): 16.5 µM; TGI (MCF7 breast): > 25 µM; GI50 (SNB-75 CNS): > 22 µM; TGI (SNB-75 CNS): > 25 µM; GI50 (NCI-H226 lung): 15.9 µM; TGI (NCI-H226 lung): > 25 µM; GI50 (LOX IMVI melanoma): 8.32 µM; TGI (LOX IMVI melanoma): > 25 µM; GI50 (HL-60(TB) leukemia): 8.93 µM; TGI (HL-60(TB) leukemia): 23.8 µM; GI50 (CCRF-CEM leukemia): 10.3 µM; TGI (CCRF-CEM leukemia): > 25 µM; GI50 (KM12 colon): 7.29 µM; TGI (KM12 colon): > 20 µM; GI50 (HCT-116 colon): 9.23 µM; TGI (HCT-116 colon): > 25 µM; GI50 (SK-MEL-5 melanoma): 7.61 µM; TGI (SK-MEL-5 melanoma): > 20.5 µM; GI50 (BT-549 breast): 10.7 µM; TGI (BT-549 breast): > 25 µM; GI50 (SR leukemia): 12.8 µM; TGI (SR leukemia): > 25 µM; GI50 (UACC-257 melanoma): 13.2 µM; TGI (UACC-257 melanoma): > 25 µM; GI50 (TK-10 renal): 0.741 µM; TGI (TK-10 renal): > 23.2 µM; GI50 (MDA-MB-231 breast): 6.1 µM; TGI (MDA-MB-231 breast): > 25 µM; GI50 (OVCAR-3 ovarian): 6.43 µM; TGI (OVCAR-3 ovarian): > 25 µM; GI50 (OVCAR-8 ovarian): 9.13 µM; TGI (OVCAR-8 ovarian): > 25 µM; GI50 (SF-539 CNS): 10.1 µM; TGI (SF-539 CNS): > 25 µM; GI50 (SF-268 CNS): > 24.1 µM; TGI (SF-268 CNS): > 25 µM; GI50 (SF-295 CNS): 7.58 µM; TGI (SF-295 CNS): > 23.1 µM; GI50 (OVCAR-4 ovarian): 14.2 µM; TGI (OVCAR-4 ovarian): > 25 µM; GI50 (SK-OV-3 ovarian): 0.104 µM; TGI (SK-OV-3 ovarian): > 25 µM; GI50 (HS 578T breast): 16.6 µM; TGI (HS 578T breast): > 25 µM; GI50 (MALME-3M melanoma): 12.9 µM; TGI (MALME-3M melanoma): > 25 µM; GI50 (RXF 393 renal): 8.3 µM; TGI (RXF 393 renal): > 20.8 µM; GI50 (SK-MEL-2 melanoma): 7.5 µM; TGI (SK-MEL-2 melanoma): 20.9 µM; GI50 (HOP-92 NSCLC): 8.82 µM; TGI (HOP-92 NSCLC): > 25 µM; GI50 (NCI-H522 lung): 1.82 µM; TGI (NCI-H522 lung): > 25 µM; GI50 (HCT-15 colon): 9.6 µM; TGI (HCT-15 colon): > 25 µM; GI50 (U251 CNS): 7.8 µM; TGI (U251 CNS): 24.4 µM; GI50 (SK-MEL-28 melanoma): 20 µM; TGI (SK-MEL-28 melanoma): > 25 µM; GI50 (UACC-62 melanoma): 6.96 µM; TGI (UACC-62 melanoma): 19.9 µM; GI50 (CAKI-1 renal): 0.299 µM; TGI (CAKI-1 renal): > 21.5 µM
